Experimental data from patent EP4775208A1, “USE OF PRMT5 INHIBITOR IN TREATMENT OF TUMORS OR CANCERS” (Apeiron Therapeutics (Hong Kong) Ltd., priority 2023, dated 2025).

What was measured:
U87MG MTAP(-/-) cells = assay: Inhibition of proliferation of U87MG MTAP(-/-) cells (CellTiter-Glo); format: cell-based; conditions: cell proliferation, 6 days
Method: Test 7: Assay for Inhibitory Activity of Compounds against U87MG MTAP(-/-) Cell Proliferation
Materials and Cells: The U87MG MTAP(-/-) cell line was purchased from ATCC (USA). Cell culture media, fetal bovine serum (FBS), and penicillin-streptomycin were purchased from Thermo Fisher Scientific (USA). 384-well plates were purchased from PerkinElmer (USA). The CellTiter-Glo assay kit was purchased from Promega (USA).
Cell Culture: U87MG MTAP(-/-) cells were cultured in a medium supplemented with 10% fetal bovine serum (FBS) and 1% penicillin-streptomycin at 37°C with 5% CO2. Only cells in the logarithmic growth phase were used for experiments.
Cell Proliferation Inhibition Assay: The antiproliferative activity of the compounds against U87MG MTAP(-/-) cells was assessed using the CellTiter-Glo assay kit. Cell suspensions were adjusted to the appropriate density and seeded into 384-well plates at a volume of 40 µL per well, then incubated overnight at 37°C with 5% CO2. Compounds (40 nL) were added to each well to achieve final concentrations ranging from 0 to 10,000 nM (starting concentration 10,000 nM, 3-fold serial dilutions, 10 dose points), with a final DMSO concentration of […]. The cell plates were incubated at 37°C with 5% CO2 for 6 days. Subsequently, 40 µL of CellTiter-Glo reagent was added to measure cell viability. Paclitaxel was used as a control compound.

[1] = system: HCT-116 MTAP wild-type cells; assay: Inhibition of proliferation of HCT-116 MTAP wild-type cells (Cell-Titer Glo); format: cell-based; conditions: 8 days
In short: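 MTAP wild-type HCT-116 cells were seeded, cultured overnight and then exposed to compound from 10,000 nM down in a 10-point, 3-fold series (0.1% DMSO). Plates were incubated 8 days at 37°C, 5% CO2. Proliferation was read by Cell-Titer Glo viability luminescence.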

[2] = system: HCT-116 MTAP(-/-) deficient cells; assay: Inhibition of proliferation of HCT-116 MTAP(-/-) deficient cells (Cell-Titer Glo); format: cell-based; conditions: 8 days
In short: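 Cells in log-phase growth, RPMI-1640 with 10% FBS, seeded and left overnight at 37°C, 5% CO2. Compound tested at 0–10,000 nM (10 points, 3-fold, 0.1% DMSO) for 8 days at 37°C, 5% CO2. Viability read by CellTiter-Glo luminescence.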

[3] = Mouse pharmacokinetic experiment (IV and PO, plasma); format: in vivo, ICR male mice; conditions: male, mouse, plasma; ICR mice, PO(10mg/kg) vs IV(3mg/kg); read-out: Bioavailability F (%)
Method: II. Mouse Pharmacokinetic Experiment
The compounds used in this experiment are specific embodiments of the present invention, with reference to compound AMG473 as an example from Amgen's patent WO 2022/169948A1, identified as example 473.
ICR male mice, N=3/group; sourced from Zhejiang Vital River Laboratory Animal Technology Co., Ltd.
3. Drug Preparation and Administration
Single oral (PO) administration to ICR mice: Compounds were dissolved in dimethyl sulfoxide, added to polyethylene glycol 400 and sterile water, and then adjusted to a clear solution with a small amount of 1 mol/L hydrochloric acid. After overnight fasting, the mice were orally gavaged with a dose of 10 mg/kg. Single intravenous (IV) administration to ICR mice: Compounds were dissolved in dimethyl sulfoxide, added to polyethylene glycol 400 and sterile water, and then adjusted to a clear solution with a small amount of 1 mol/L hydrochloric acid. After overnight fasting, the mice received tail vein injections with a dose of 3 mg/kg.
Approximately 30 µL/time point blood samples were collected via the tail vein. Potassium ethylenediaminetetraacetate was used as an anticoagulant, and samples were centrifuged at 4000 g/min for 5 minutes at 4°C within 1 hour. Blood sampling time points were 0.0833 (IV), 0.25, 0.5, 1, 2, 4, 6, 8, 24 hours. Samples were stored in a -20°C freezer.
Plasma samples (30µL, 10µL sample + 20µL blank plasma) were mixed with 200µL ice-cold acetonitrile containing internal standards. After vortexing for 30 seconds, samples were centrifuged at 4000g/min for 20 minutes. One hundred microliters of the supernatant were transferred to a 96-well plate, followed by the addition of 200µL ultrapure water. After vortexing for 30 seconds, 5µL or 10µL were injected into LC-MS/MS for analysis. Table 7: Pharmacokinetic Data

| IC50 (U87MG MTAP(-/-) cells; Homo sapiens, U-87 MG, 144 h) | IC50 ([1]; Homo sapiens, HCT-116, 192 h) | IC50 ([2]; Homo sapiens, HCT-116, 192 h) | bioavailability [3] | Compound | IC50 (U87MG MTAP(-/-) cells) | IC50 [1] | IC50 [2] |
| --- | --- | --- | --- | --- | --- | --- | --- |
| 343 nM | 5130 nM | 36 nM |  | CN(C(=O)c1cc2c(cc1C(F)(F)F)nc(N)c1cncn12)[C@@H]1COc2cc(C(F)(F)F)ccc21 [Example 36, (S)-4-amino-N-methy 1-7-(trifluoromethyl)-N-(6-(trifluoromethyl) -2,3-dihydrobenzofuran-3-yl)imidazo[1,5-a] quinoxaline-8-carbox amide] |  |  |  |
| 176 nM | 2040 nM | 15.9 nM |  | Cc1ncc2c(N)nc3ccc(C(=O)N(C)[C@@H]4COc5cc(C(F)(F)F)ccc54)cc3n12 [Example 39, (S)-4-amino-N,1-dime thyl-N-(6-(trifluoromethyl)-2,3-dihydrobenzofuran-3-yl)imidazo[1 ,5-a]quinoxaline-8-carboxamide] |  |  |  |
| 153 nM | 9200 nM | 32.1 nM |  | Cc1ncc(-c2ccc3c(c2)OC[C@H]3N(C)C(=O)c2cc3c(cc2F)nc(N)c2cncn23)cn1 [Example 40, (S)-4-amino-7-fluoro-N-methyl-N-(6-(2-methylpyrimidin-5-yl)-2,3-dihydrobenzofuran-3-yl)imidazo[1,5-a]qu inoxaline-8-carboxamide] |  |  |  |
| 60.6 nM | 947 nM | 10.3 nM |  | CN(C(=O)c1ccc2nc(N)c3cncn3c2c1)C1COc2cc(S(F)(F)(F)(F)F)ccc21 (stereo not drawn) [Example 45, 4-amino-N-methyl-N-(6-(pentafluoro-λ^6-sulfaneyl)-2,3-dihydrobenzofuran-3-yl)imidaz o[1,5-a]quinoxaline-8-carboxamide] |  |  |  |
| 475 nM | 4100 nM | 17.7 nM |  | CN(C(=O)c1ccc2nc(N)c3cncn3c2c1)[C@@H]1COc2cc(-c3cncc(C(F)(F)F)c3)ccc21 [Example 47, (S)-4-amino-N-methy 1-N-(6-(5-(trifluoromethyl)pyridin-3-yl)-2,3-dihydrobenzofuran-3-yl)imidazo[1,5-a]quin oxaline-8-carboxamide] |  |  |  |
| 74.9 nM | 1220 nM | 11.8 nM |  | CCN(C(=O)c1ccc2nc(N)c3cncn3c2c1)[C@@H]1COc2cc(C(F)(F)F)ccc21 [Example 55, (S)-4-amino-N-ethyl-N-(6-(trifluoromethyl) -2,3-dihydrobenzofuran-3-yl)imidazo[1,5-a] quinoxaline-8-carbox amide] |  |  |  |
| 108 nM | 1530 nM | 15.9 nM |  | CN(C(=O)c1ccc2nc(N)c3cncn3c2c1)[C@@H]1COc2cc(OC(F)(F)F)ccc21 [Example 56, (S)-4-amino-N-methy 1-N-(6-(trifluoromethoxy)-2,3-dihydrobenzofuran-3-yl)imidazo[1,5-a]quinoxaline-8-car boxamide] |  |  |  |
| 72.1 nM | 1170 nM | 7.3 nM |  | [2H]C([2H])([2H])N(C(=O)c1cc2c(cn1)nc(N)c1cncn12)[C@@H]1COc2cc(C(F)(F)F)ccc21 [Example 75, (S)-4-amino-N-(methyl-d3)-N-(6-(trifluoromethyl)-2,3-dihydrobenzofuran-3-yl)imidazo[1,5-a]pyrido[3,4-e]pyrazine-8-carb oxamide] |  |  |  |
|  |  |  |  | CN(C(=O)c1ccc2nc(N)c3cncn3c2c1)[C@@H]1COc2cc(C(F)(F)F)ccc21 [Example 79, (S)-4-amino-N-methy 1-N-(6-(trifluoromethyl)-2,3-dihydrobenzofuran-3-yl)imidazo[1,5-a]quinoxaline-8-carbo xamide-3-d] | 83.3 nM | 1300 nM | 5.6 nM |
| 376 nM | 9170 nM | 39.3 nM |  | COc1ccc2c(c1)OC[C@H]2N(C)C(=O)c1cc2c(cc1F)nc(N)c1cncn12 [Example 80, (S)-4-amino-7-fluoro-N-(6-methoxy-2,3-dihydrobenzofuran-3-yl)-N-methylimidazo[1,5-a]quinoxaline-8-carboxamide] |  |  |  |
| 61.3 nM | 617 nM | 6.6 nM |  | CN(C(=O)c1cc2c(cc1F)nc(N)c1cncn12)[C@@H]1COc2cc(-c3ccnn3C)ccc21 [Example 117, (S)-4-amino-7-fluoro-N-methyl-N-(6-(1-methyl-1H-pyrazol-5-yl) -2,3-dihydrobenzofuran-3-yl)imidazo[1,5-a] quinoxaline-8-carbox amide] |  |  |  |
| 101 nM | 1310 nM | 13.5 nM |  | Cc1cc(-c2ccc3c(c2)OC[C@H]3N(C)C(=O)c2cc3c(cc2F)nc(N)c2cncn23)on1 [Example 119, (S)-4-amino-7-fluoro-N-methyl-N-(6-(3-methylisoxazol-5-yl)-2,3-dihydrobenzofuran-3-yl)imidazo[1,5-a]qui noxaline-8-carboxamide] |  |  |  |
| 777 nM | > 10000 nM | 50.6 nM |  | COC(=O)c1ccc2c(c1)OC[C@H]2N(C)C(=O)c1ccc2nc(N)c3cncn3c2c1 [Example 122, methyl (S)-3-(4-amino-N-methylimidazo[1,5-a]quinoxaline-8-carboxamido)-2,3-dihydrobenzofuran-6-carboxylate] |  |  |  |
| 64.4 nM | 634 nM | 6.5 nM |  | CCN(C(=O)c1cc2c(cc1F)nc(N)c1cncn12)[C@@H]1COc2cc(C(F)(F)F)ccc21 [Example 124, (S)-4-amino-N-ethyl-7-fluoro-N-(6-(trifluor omethyl)-2,3-dihydrobenzofuran-3-yl)imid azo[1,5-a]quinoxaline-8-carboxamide] |  |  |  |
|  | 1290 nM | 5.8 nM | 77.5% | CN(C(=O)c1ccc2nc(N)c3cncn3c2c1)[C@@H]1COc2cc(C(F)(F)C(F)(F)F)ccc21 [Example 130, (S)-4-amino-N-methy 1-N-(6-(perfluoroethyl)-2,3-dihydrobenzofuran-3-yl)imidazo[1,5-a]quinoxaline-8-carbox amide] |  |  |  |
|  |  |  |  | (S)-4-amino-7-fluoro-N-methyl-N-(6-(1-me thyl-1H-pyrazol-4-yl) -2,3-dihydrobenzofura n-3-yl)imidazo[1,5-a] quinoxaline-8-carbox amide [Example 34] | 179 nM | 6570 nM | 29.6 nM |
|  |  |  |  | (S)-4-amino-N-methyl-N-(6-(trifluoromethyl)-2,3-dihydrobenzofuran-3-yl)imidazo[1,5-a]quinoxaline-8-carboxamide-1-d [Example 78] | 211 nM | 2070 nM | 7.1 nM |

| Compound | IC50 (U87MG MTAP(-/-) cells; Homo sapiens, U-87 MG, 144 h) | IC50 ([1]; Homo sapiens, HCT-116, 192 h) | IC50 ([2]; Homo sapiens, HCT-116, 192 h) | bioavailability [3] | IC50 (U87MG MTAP(-/-) cells) | IC50 [1] | IC50 [2] |
| --- | --- | --- | --- | --- | --- | --- | --- |
| CN(C(=O)c1cc2c(cc1F)nc(N)c1cncn12)[C@@H]1COc2cc(S(C)(=O)=O)ccc21 [Example 38, (S)-4-amino-7-fluoro-N-methyl-N-(6-(methylsulfonyl)-2,3-dihydrobenzofuran-3-yl)imi dazo[1,5-a]quinoxaline-8-carboxamide] | 443 nM | 4060 nM | 30 nM |  |  |  |  |
